In PubChem BioAssay (NCI):
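Briefly, cells in 96-well plates were exposed to five compound concentrations for 48 h, and endpoints were estimated by linear interpolation. At the GI50, growth is halved. TGI is the concentration that stops growth completely.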

Assays:
Assay in all cases: NCI-60 cell line screen, 48 h
NCI/ADR-RES ovarian = test system: NCI/ADR-RES ovarian
MALME-3M melanoma = test system: MALME-3M melanoma
SNB-19 CNS = test system: SNB-19 CNS
MOLT-4 leukemia = test system: MOLT-4 leukemia
UACC-257 melanoma = test system: UACC-257 melanoma
ACHN renal = test system: ACHN renal
OVCAR-5 ovarian = test system: OVCAR-5 ovarian
NCI-H522 lung = test system: NCI-H522 lung
OVCAR-4 ovarian = test system: OVCAR-4 ovarian
MCF7 breast = test system: MCF7 breast
NCI-H226 lung = test system: NCI-H226 lung
HS 578T breast = test system: HS 578T breast
SN12C renal = test system: SN12C renal
SK-MEL-2 melanoma = test system: SK-MEL-2 melanoma
OVCAR-3 ovarian = test system: OVCAR-3 ovarian
RXF 393 renal = test system: RXF 393 renal
SF-539 CNS = test system: SF-539 CNS
SW-620 colon = test system: SW-620 colon
T-47D breast = test system: T-47D breast
HOP-62 NSCLC = test system: HOP-62 NSCLC
TK-10 renal = test system: TK-10 renal
PC-3 prostate = test system: PC-3 prostate
HT29 colon = test system: HT29 colon
SF-295 CNS = test system: SF-295 CNS
NCI-H23 lung = test system: NCI-H23 lung
COLO 205 colon = test system: COLO 205 colon
KM12 colon = test system: KM12 colon
UO-31 renal = test system: UO-31 renal
SK-OV-3 ovarian = test system: SK-OV-3 ovarian
SR leukemia = test system: SR leukemia
SK-MEL-28 melanoma = test system: SK-MEL-28 melanoma
EKVX NSCLC = test system: EKVX NSCLC
NCI-H460 lung = test system: NCI-H460 lung
SNB-75 CNS = test system: SNB-75 CNS
HCT-116 colon = test system: HCT-116 colon
LOX IMVI melanoma = test system: LOX IMVI melanoma
M14 melanoma = test system: M14 melanoma
MDA-MB-435 = test system: MDA-MB-435
K-562 leukemia = test system: K-562 leukemia
SF-268 CNS = test system: SF-268 CNS
CAKI-1 renal = test system: CAKI-1 renal
BT-549 breast = test system: BT-549 breast
U251 CNS = test system: U251 CNS
RPMI-8226 leukemia = test system: RPMI-8226 leukemia
MDA-MB-468 breast = test system: MDA-MB-468 breast
OVCAR-8 ovarian = test system: OVCAR-8 ovarian
CCRF-CEM leukemia = test system: CCRF-CEM leukemia
A549 NSCLC = test system: A549 NSCLC
HCT-15 colon = test system: HCT-15 colon
786-0 renal = test system: 786-0 renal
DU-145 prostate = test system: DU-145 prostate
HL-60(TB) leukemia = test system: HL-60(TB) leukemia
IGROV1 ovarian = test system: IGROV1 ovarian
HCC-2998 colon = test system: HCC-2998 colon
A498 renal = test system: A498 renal
UACC-62 melanoma = test system: UACC-62 melanoma
HOP-92 NSCLC = test system: HOP-92 NSCLC
MDA-MB-231 breast = test system: MDA-MB-231 breast
SK-MEL-5 melanoma = test system: SK-MEL-5 melanoma

CC(=C(c1ccc(OCCN2CCCCC2)cc1)c1ccc(OCCN2CCCCC2)cc1)c1ccccc1
GI50 (NCI/ADR-RES ovarian): 12.1 µM | TGI (NCI/ADR-RES ovarian): > 21.8 µM | GI50 (MALME-3M melanoma): 3.38 µM | TGI (MALME-3M melanoma): 6.31 µM | GI50 (SNB-19 CNS): 6.88 µM | TGI (SNB-19 CNS): > 21.8 µM | GI50 (MOLT-4 leukemia): 4.15 µM | TGI (MOLT-4 leukemia): 12.9 µM | GI50 (UACC-257 melanoma): 3.18 µM | TGI (UACC-257 melanoma): 6.3 µM | GI50 (ACHN renal): 5.2 µM | TGI (ACHN renal): 17.2 µM | GI50 (OVCAR-5 ovarian): 11.7 µM | TGI (OVCAR-5 ovarian): > 21.8 µM | GI50 (NCI-H522 lung): 3.26 µM | TGI (NCI-H522 lung): 7.85 µM | GI50 (OVCAR-4 ovarian): 7.66 µM | TGI (OVCAR-4 ovarian): > 21.8 µM | GI50 (MCF7 breast): 0.625 µM | TGI (MCF7 breast): 4.98 µM | GI50 (NCI-H226 lung): > 21.8 µM | TGI (NCI-H226 lung): > 21.8 µM | GI50 (HS 578T breast): 3.33 µM | TGI (HS 578T breast): 10.9 µM | GI50 (SN12C renal): > 21.8 µM | TGI (SN12C renal): > 21.8 µM | GI50 (SK-MEL-2 melanoma): 3.85 µM | TGI (SK-MEL-2 melanoma): 7.72 µM | GI50 (OVCAR-3 ovarian): 3.84 µM | TGI (OVCAR-3 ovarian): 17.2 µM | GI50 (RXF 393 renal): 3.21 µM | TGI (RXF 393 renal): 10.4 µM | GI50 (SF-539 CNS): 3.39 µM | TGI (SF-539 CNS): 6.39 µM | GI50 (SW-620 colon): 2.95 µM | TGI (SW-620 colon): 6.86 µM | GI50 (T-47D breast): 2.55 µM | TGI (T-47D breast): 6.6 µM | GI50 (HOP-62 NSCLC): 6.45 µM | TGI (HOP-62 NSCLC): > 21.8 µM | GI50 (TK-10 renal): 16.7 µM | TGI (TK-10 renal): > 21.8 µM | GI50 (PC-3 prostate): 8.19 µM | TGI (PC-3 prostate): > 21.8 µM | GI50 (HT29 colon): 3.77 µM | TGI (HT29 colon): 11.7 µM | GI50 (SF-295 CNS): 3.52 µM | TGI (SF-295 CNS): 7.17 µM | GI50 (NCI-H23 lung): 12.5 µM | TGI (NCI-H23 lung): > 21.8 µM | GI50 (COLO 205 colon): 3.53 µM | TGI (COLO 205 colon): 7.61 µM | GI50 (KM12 colon): 8.17 µM | TGI (KM12 colon): > 21.8 µM | GI50 (UO-31 renal): 3.82 µM | TGI (UO-31 renal): 10.4 µM | GI50 (SK-OV-3 ovarian): > 21.8 µM | TGI (SK-OV-3 ovarian): > 21.8 µM | GI50 (SR leukemia): 3.68 µM | TGI (SR leukemia): 11.5 µM | GI50 (SK-MEL-28 melanoma): 3.62 µM | TGI (SK-MEL-28 melanoma): 6.68 µM | GI50 (EKVX NSCLC): > 21.8 µM | TGI (EKVX NSCLC): > 21.8 µM | GI50 (NCI-H460 lung): 4.1 µM | TGI (NCI-H460 lung): 9.98 µM | GI50 (SNB-75 CNS): 3.79 µM | TGI (SNB-75 CNS): > 21.8 µM | GI50 (HCT-116 colon): 3.43 µM | TGI (HCT-116 colon): 10.1 µM | GI50 (LOX IMVI melanoma): 3.48 µM | TGI (LOX IMVI melanoma): 6.59 µM | GI50 (M14 melanoma): 3.95 µM | TGI (M14 melanoma): 8.32 µM | GI50 (MDA-MB-435): 3.25 µM | TGI (MDA-MB-435): 6.88 µM | GI50 (K-562 leukemia): 3.26 µM | TGI (K-562 leukemia): > 21.8 µM | GI50 (SF-268 CNS): 5.56 µM | TGI (SF-268 CNS): > 21.8 µM | GI50 (CAKI-1 renal): 5.01 µM | TGI (CAKI-1 renal): > 21.8 µM | GI50 (BT-549 breast): > 21.8 µM | TGI (BT-549 breast): > 21.8 µM | GI50 (U251 CNS): 3.76 µM | TGI (U251 CNS): 8.51 µM | GI50 (RPMI-8226 leukemia): 6.54 µM | TGI (RPMI-8226 leukemia): > 21.8 µM | GI50 (MDA-MB-468 breast): 3.79 µM | TGI (MDA-MB-468 breast): 9.45 µM | GI50 (OVCAR-8 ovarian): > 21.8 µM | TGI (OVCAR-8 ovarian): > 21.8 µM | GI50 (CCRF-CEM leukemia): 5.2 µM | TGI (CCRF-CEM leukemia): 21.7 µM | GI50 (A549 NSCLC): 5.91 µM | TGI (A549 NSCLC): > 21.8 µM | GI50 (HCT-15 colon): 4.98 µM | TGI (HCT-15 colon): > 21.8 µM | GI50 (786-0 renal): 3.39 µM | TGI (786-0 renal): 6.91 µM | GI50 (DU-145 prostate): 12.4 µM | TGI (DU-145 prostate): > 21.8 µM | GI50 (HL-60(TB) leukemia): 2.67 µM | TGI (HL-60(TB) leukemia): 7.09 µM | GI50 (IGROV1 ovarian): 9.78 µM | TGI (IGROV1 ovarian): > 21.8 µM | GI50 (HCC-2998 colon): 4.7 µM | TGI (HCC-2998 colon): 21 µM | GI50 (A498 renal): > 21.8 µM | TGI (A498 renal): > 21.8 µM | GI50 (UACC-62 melanoma): 3.64 µM | TGI (UACC-62 melanoma): 6.83 µM | GI50 (HOP-92 NSCLC): 5.01 µM | TGI (HOP-92 NSCLC): > 21.8 µM | GI50 (MDA-MB-231 breast): 4 µM | TGI (MDA-MB-231 breast): 9.17 µM | GI50 (SK-MEL-5 melanoma): 3.64 µM | TGI (SK-MEL-5 melanoma): 6.87 µM
